Results published in patent US8642656B2, “Calixarene-based peptide conformation mimetics, methods of use, and methods of making” (priority 2004, dated 2014).
Entries after “also recorded” stand apart in the source; their conditions may differ. Like-named read-outs stand apart in the source and are kept apart here.

What was measured:
E. coli J96 = experiment: Bactericidal assay on J96; format: cell-based; settings: read-out: Bacterial activity on J96 IC50 (conc)
From the text: Pseudomonas aeruginosa type 1 is a clinical, smooth strain isolate stereotyped by using the scheme of Homma et al., Japan. J. Exp. Med. 46, 329-336 (1976) and maintained in the lab by monthly transfer on blood agar plates. E. coli J96, IA2, and H5 are smooth strain, uropathogenic clinical isolates kindly maintained and provided by J. R. Johnson and described in Johnson et al., J. Infect. Disease 173, 920-926 (1996) for J96 and IA2 and in Johnson et al., J. Infect. Disease 173, 746-749 (1996) for H5. J5 is an E. coli rough strain initially referenced by G. R. Siber and discussed in Warren et al., Infect. Immunity 55, 1668-1673 (1987) and is analogous to the smooth strain E. coli 0111:B4 used in the BioWhittaker LAL endotoxin detection and quantitation kit described below. Gram-positive MN8 and MNHO are two patient isolates of Staphylococcus aureus, which were kindly provided by P. M. Schlievert and described in Bohach et al., Rev. Infect. Diseases 11, 75-82 (1989) for MNHO and in Schlievert et al., J. Infect. Diseases 147, 236-242 (1983) for MN8. All cultures are maintained on nutrient agar plates.
Pyrogen-free solutions were used throughout the assay. Log phase bacteria were obtained by transferring an overnight culture or scraping crystals off-85° C glycerol stocks of overnight cultures. Bacteria were washed and resuspended in 0.9% sodium chloride with adjustment to an optical density at 650 nm which yields 3×10^8 CFU/ml. Bacteria were then diluted 1:10 in 0.08 M citrate phosphate buffer, pH 7.0 (prepared by mixing 0.08 M citric acid with 0.08 M dibasic sodium phosphate). Bacteria (0.15 ml) were incubated with the test compound in a final volume of 1.0 ml of buffer. The assay was done in 17×100 polypropylene tubes in a reciprocal water bath shaker at 37° C for 30 minutes. Following this 30 minute (min) incubation. 10-fold dilutions were made in 0.9% sodium chloride. Dilutions were done to 10^−4 and 20 μl of each dilution was streaked across an agar plate. Gram-positive organisms were plated on nutrient agar plates containing 2% agar and Gram-negative organisms were plated on MacConkey agar (2%). Plates were incubated overnight at 37° C and counted the next morning. The dilution containing 10-100 bacteria was counted and the number multiplied by 50 to adjust all counts to the number bacteria killed per milliliter. Compound concentrations were converted to logarithm base ten and graphed. Bactericidal activity was determined by dose response where LD50 values were determined by best fits of a sigmoidal curve to the dose response data.

endothelial cell (EC) = experiment: EC Proliferation Assay, [3H]thymidine incorporation (Example 36, Table 1); format: cell-based; settings: read-out: EC proliferation IC50 (conc)
Method: Human umbilical vein derived EC(HUVEC) were harvested from normal human umbilical cords by perfusion with 0.125% trypsin/EDTA as described in Groenewegen et al., J. Exp. Med. 164, 131-143 (1986). For determination of quiescent EC phenotype isolated ECs were immediately fixed in 1% paraformaldehyde. Human microvascular ECs (MVECs) were isolated. ECs were cultured in fibronectin coated tissue culture flasks in culture medium (RPMJ-1640 with 20% human serum (HS), supplemented with 2 mM glutamine and 100 U/ml penicillin and 0.1 mg/ml streptomycin).
EC proliferation was measured using a [^3H]thymidine incorporation assay. ECs were seeded at 5000 cells/well in flatbottomed tissue culture plates and grown for 3 days, in the absence or presence of regulators, in culture medium. During the last 6 hours of the assay, the culture was pulsed with 0.5μ Ci [methyl-^3H]thymidine/well.

EC [1] = experiment: EC % total cell death (Table 1); format: cell-based, human
Hemolysis (Table 1) = format: cell-based; settings: at 10^−6 M
Fibro = experiment: Other cells, Fibro (Table 1); format: cell-based
EC [2] = experiment: EC % apoptosis (Table 1); format: cell-based, human
Solubility (Table 1) = format: physicochemical; settings: for Solubility (solvent, in words): footnotes: 3 mM in 100% DMSO or ethanol → 0.03 mM in H2O
SCK = experiment: Other cells, SCK (Table 1); format: cell-based
MA148 = experiment: Other cells, MA148 (Table 1); format: cell-based, human
[3] = tested on: LPS from E. coli serotype 0111:B4; experiment: LPS neutralization assay (Limulus amoebocyte lysate, QCL-1000); format: biochemical; settings: read-out: IC50 values (μM) for LPS binding, E. coli 0111:B4
From the text: (§1) The ability of compounds to neutralize endotoxin was detected in vitro by using the chromogenic QCL-1000 kit from BioWhittaker, Inc. (Walkersville, Md.), and as described in their protocol. This Limulus amoebocyte lysate (LAL) assay is quantitative for Gram negative bacterial endotoxin (lipopolysaccharide, LPS). In this assay compounds that are active inhibit the LPS-mediated activation of a proenzyme whose active form would release p-nitroaniline (pNA) from a colorless synthetic substrate producing a yellow color (pNA) whose absorption is monitored spectrophotometrically at 405-410 nm. The initial rate of enzyme activation is proportional to the concentration of endotoxin present.
(§2) Variants of LPS from six Gram negative bacteria were used: E. coli serotypes 0111:B4 (Combrex, Walkersville, Md.) and 055:B5 (Sigma, St. Louis, Mo.); Klebsiella pneumoniae (List Biologies, San Jose, Calif.); Pseudomonas aeruginosa (List Biologies, San Jose, Calif.); Salmonella typhimurium (List Biologies, San Jose, Calif.), and Serratia marcascens (List Biologies, San Jose, Calif.). The concentration of compound required to neutralize a given LPS and therefore to inhibit the Limulus amoebocyte lysate driven by 0.04 units of any given LPS was determined by dose response curves fit by using a standard sigmoidal function to determined the JC50 value for each lopomimetic compound. The 0.04 units corresponds to 0.01 ng LPS from E. coli serotype 055:B5, 0.01 ng LPS from E. coli serotype 0111:B4, 0.003 ng LPS from K. pneumoniae, 0.01 ng LPS from P. aeruginosa, 0.03 ng LPS from S. typhimurium, and 0.03 ng LPS from S. marcascens.

[4] = tested on: LPS from E. coli serotype 055:B5; experiment: as above; format: biochemical
From the text: as §1, §2

LPS from K. pneumoniae = experiment: as above; format: biochemical, Klebsiella pneumoniae; settings: read-out: IC50 values (μM) for LPS binding, Klebsiella
From the text: as §1, §2

[5] = tested on: LPS from six species of bacteria; experiment: LPS neutralization assay, overall statements; format: biochemical; settings: library of 23 compounds
From the text: as §1
as §2, with “The 0.04 units corresponds to 0.01 ng LPS from E. coli serotype 055:B5, 0.01 ng LPS from E. coli serotype 0111:B4, 0.003 ng LPS from K. pneumoniae, 0.01 ng LPS from P. aeruginosa, 0.03 ng LPS from S. typhimurium, and 0.03 ng LPS from S. marcascens.” left out

LPS from S. marcascens = experiment: LPS neutralization assay (Limulus amoebocyte lysate, QCL-1000); format: biochemical, Serratia marcascens; settings: read-out: IC50 values (μM) for LPS binding, Serratia
From the text: as §1, §2

LPS from S. typhimurium = experiment: as above; format: biochemical, Salmonella typhimurium; settings: read-out: IC50 values (μM) for LPS binding, Salmonella
From the text: as §1, §2

LPS from P. aeruginosa = experiment: as above; format: biochemical, Pseudomonas aeruginosa; settings: read-out: IC50 values (μM) for LPS binding, P.a.
From the text: as §1, §2

SMILES	IC50 (E. coli J96) [nM]	IC50 (endothelial cell (EC)) [nM]	EC % total cell death (EC [1])	Hemolysis (Hemolysis (Table 1)) [% at 10^−6 M]	Other cells 25 μM, Fibro (Fibro)	EC % Apoptosis 25 μM (EC [2])	Solubility (solvent, in words) (Solubility (Table 1))	also measured
CN(C)CCNC(=O)COc1c2cc(C(C)(C)C)cc1Cc1cc(C(C)(C)C)cc(c1OCC(=O)NCCN(C)C)Cc1cc(C(C)(C)C)cc(c1OCC(=O)NCCN(C)C)Cc1cc(C(C)(C)C)cc(c1OCC(=O)NCCN(C)C)C2 [drawing 10]	1300	> 25000	No effect	100	100%	No effect	DMSO/H2O	
CC(C)(C)c1cc2c(O)c(c1)Cc1cc(C(C)(C)C)cc(c1OCCNC(=N)N)Cc1cc(C(C)(C)C)cc(c1O)Cc1cc(C(C)(C)C)cc(c1OCCNC(=N)N)C2	> 3800	8300	65%	100	100% 100% 100%	No effect		Other cells 25 μM, SCK (SCK): 100% 100% 100%; Other cells 25 μM, MA148 (MA148): 100% 100% 100%; Solubility (Solubility (Table 1); DMSO/H2O (30/70%), at >80° C., no infl. of pH 2 + 11): DMSO/H2O (30/70%) up to 30 mg/ml at >80° C., no infl. of pH 2 + 11
CC(C)(C)c1cc2c(OCCCCN)c(c1)Cc1cc(C(C)(C)C)cc(c1OCCCCNC(=N)N)Cc1cc(C(C)(C)C)cc(c1OCCCCNC(=N)N)Cc1cc(C(C)(C)C)cc(c1OCCCCNC(=N)N)C2.O=C(O)C(F)(F)F [Compound 43, 5,11,17,23-Tetra-tert-butyl-25,26,27-tris(4-guanidinobutyroxy)-28-(4-aminobutyroxy) calix[4]arene trifloroacetic acid salt]								IC50 ([3]; Table 2): 0.4 µM; IC50 ([3]; Table 3, errors estimated ±30%): 0.4 µM; IC50 ([4]; Table 2, read-out: IC50 values (μM) for LPS binding, E. coli 055:B4): 0.1 µM; IC50 ([4]; Table 3, errors estimated ±30%, read-out: IC50 values (μM) for LPS binding, E. coli 055:B5): 0.1 µM; IC50 (LPS from K. pneumoniae; Table 2): 0.5 µM; IC50 (LPS from K. pneumoniae; Table 3, errors estimated ±30%): 0.5 µM; neutralizing LPS, ranking in words [5]: best LPS neutralizing compounds; also recorded: most effective for neutralizing LPS; IC50 (LPS from S. marcascens; Table 2): 3.2 µM; IC50 (LPS from S. marcascens; Table 3, errors estimated ±30%): 3.2 µM; IC50 (LPS from S. typhimurium; Table 2): 0.6 µM; IC50 (LPS from S. typhimurium; Table 3, errors estimated ±30%): 0.6 µM; IC50 (LPS from P. aeruginosa; Table 2): 0.8 µM; IC50 (LPS from P. aeruginosa; Table 3, errors estimated ±30%): 0.8 µM
CC(C)(C)c1cc2c(O)c(c1)Cc1cc(C(C)(C)C)cc(c1OCCNC(=N)N)Cc1cc(C(C)(C)C)cc(c1O)Cc1cc(C(C)(C)C)cc(c1OCCN)C2.O=C(O)C(F)(F)F	2500	> 25000					DMSO/H2O	
